Measurements as given in patent publication US20260262643A1, “HERBICIDAL BENZOXAZINES” (FMC CORPORATION, priority 2022, published 2026).

Legend:
blackgrass [1] = test: Test A postemergence; assay type: in vivo, Alopecurus myosuroides
Method in brief: (§1)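 Plants were grown in loam and sand and treated preemergence or postemergence (one- to two-leaf stage, 2–10 cm) with compound in solvent plus surfactant. Response was scored against untreated controls after 10 greenhouse days, where 0 means no effect and 100 complete control.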

pigweed, palmer [2] = test: Test A postemergence; assay type: in vivo, Amaranthus palmeri
Method in brief: as §1

kochia [3] = test: Test A postemergence; assay type: in vivo, Bassia scoparia
Method in brief: as §1

sedge, umbrella = test: Test B flooded paddy test; assay type: in vivo, Cyperus difformis; settings: 250 g ai/ha, Flood, 13 days, 0 to 100 scale (0 no effect, 100 complete control)
Method in brief: (§2)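 2-leaf stage; pots flooded 3 cm over soil; compound dosed into paddy water; depth kept constant. Greenhouse, 13 d. Visual rating vs controls, 0 (no effect)–100 (complete control). Dash = no result.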

pigweed, palmer [4] = test: Test A preemergence; assay type: in vivo, Amaranthus palmeri
Method in brief: as §1

foxtail, giant [5] = test: Test A postemergence; assay type: in vivo, Setaria faberi
Method in brief: as §1

ragweed [6] = test: Test A postemergence; assay type: in vivo, Ambrosia artemisiifolia
Method in brief: as §1

horseweed = test: Test A postemergence; assay type: in vivo, Erigeron canadensis
Method in brief: as §1

ragweed [7] = test: Test A preemergence; assay type: in vivo, Ambrosia artemisiifolia
Method in brief: as §1

kochia [8] = test: Test A preemergence; assay type: in vivo, Bassia scoparia
Method in brief: as §1

soybean [9] = test: Test A postemergence; assay type: in vivo, Glycine max
Method in brief: as §1

corn [10] = test: Test A postemergence; assay type: in vivo, Zea mays
Method in brief: as §1

wheat [11] = test: Test A postemergence; assay type: in vivo, Triticum aestivum
Method in brief: as §1

goosegrass [12] = test: Test A preemergence; assay type: in vivo, Eleusine indica
Method in brief: as §1

foxtail, giant [13] = test: Test A preemergence; assay type: in vivo, Setaria faberi
Method in brief: as §1

soybean [14] = test: Test A preemergence; assay type: in vivo, Glycine max
Method in brief: as §1

ryegrass, Italian [15] = test: Test A preemergence; assay type: in vivo, Lolium multiflorum
Method in brief: as §1

goosegrass [16] = test: Test A postemergence; assay type: in vivo, Eleusine indica
Method in brief: as §1

rice = test: Test B flooded paddy test; assay type: in vivo, Oryza sativa; settings: 250 g ai/ha, Flood, 13 days, 0 to 100 scale (0 no effect, 100 complete control)
Method in brief: as §2

blackgrass [17] = test: Test A preemergence; assay type: in vivo, Alopecurus myosuroides
Method in brief: as §1

oat, wild [18] = test: Test A preemergence; assay type: in vivo, Avena fatua
Method in brief: as §1

corn [19] = test: Test A preemergence; assay type: in vivo, Zea mays
Method in brief: as §1

barnyardgrass = test: Test B flooded paddy test; assay type: in vivo, Echinochloa crus-galli; settings: 250 g ai/ha, Flood, 13 days, 0 to 100 scale (0 no effect, 100 complete control)
Method in brief: as §2

galium = test: Test A postemergence; assay type: in vivo, Galium aparine
Method in brief: as §1

wheat [20] = test: Test A preemergence; assay type: in vivo, Triticum aestivum
Method in brief: as §1

ducksalad = test: Test B flooded paddy test; assay type: in vivo, Heteranthera limosa; settings: 250 g ai/ha, Flood, 13 days, 0 to 100 scale (0 no effect, 100 complete control)
Method in brief: as §2

ryegrass, Italian [21] = test: Test A postemergence; assay type: in vivo, Lolium multiflorum
Method in brief: as §1

oat, wild [22] = test: Test A postemergence; assay type: in vivo, Avena fatua
Method in brief: as §1

[23] = 125 g ai/ha, postemergence, 10 days, visual injury, 0 to 100 scale (0 no effect, 100 complete control)
[24] = 500 g ai/ha, Postemergence, 0 to 100 scale
[25] = 125 g ai/ha, visual injury after 10 days, 0 to 100 scale, 0 is no effect, 100 is complete control
[26] = 500 g ai/ha, 0 to 100 scale (0 no effect, 100 complete control), 10 days

Cc1cccc2c1O[C@@H](C)CN2C(=O)c1cccc(-n2cncn2)c1F [Compound 53]
Plant response rating, Blackgrass (blackgrass [1]; [23]): 0
Plant response rating, Blackgrass (blackgrass [1]; [24]): 20
Plant response rating, Pigweed, Palmer (pigweed, palmer [2]; [23]): 0
Plant response rating, Pigweed, Palmer (pigweed, palmer [2]; [24]): 30
Plant response rating, Kochia (kochia [3]; [23]): 0
Plant response rating, Kochia (kochia [3]; [24]): 10
Plant response rating, Sedge, Umbrella (sedge, umbrella): 0
Plant response rating, Pigweed, Palmer (pigweed, palmer [4]; [25]): 0
Plant response rating, Pigweed, Palmer (pigweed, palmer [4]; [26]): 0
Plant response rating, Foxtail, Giant (foxtail, giant [5]; [23]): 0
Plant response rating, Foxtail, Giant (foxtail, giant [5]; [24]): 10
Plant response rating, Ragweed (ragweed [6]; [23]): 0
Plant response rating, Ragweed (ragweed [6]; [24]): 0
Plant response rating, Horseweed (horseweed; [23]): 0
Plant response rating, Horseweed (horseweed; [24]): 0
Plant response rating, Ragweed (ragweed [7]; [25]): 0
Plant response rating, Ragweed (ragweed [7]; [26]): 0
Plant response rating, Kochia (kochia [8]; [25]): 0
Plant response rating, Kochia (kochia [8]; [26]): 20
Plant response rating, Soybean (soybean [9]; [23]): 20
Plant response rating, Soybean (soybean [9]; [24]): 50
Plant response rating, Corn (corn [10]; [23]): 0
Plant response rating, Corn (corn [10]; [24]): 0
Plant response rating, Wheat (wheat [11]; [23]): 0
Plant response rating, Wheat (wheat [11]; [24]): 0
Plant response rating, Goosegrass (goosegrass [12]; [25]): 0
Plant response rating, Goosegrass (goosegrass [12]; [26]): 40
Plant response rating, Foxtail, Giant (foxtail, giant [13]; [25]): 0
Plant response rating, Foxtail, Giant (foxtail, giant [13]; [26]): 0
Plant response rating, Soybean (soybean [14]; [25]): 0
Plant response rating, Soybean (soybean [14]; [26]): 0
Plant response rating, Ryegrass, Italian (ryegrass, Italian [15]; [25]): 30
Plant response rating, Ryegrass, Italian (ryegrass, Italian [15]; [26]): 70
Plant response rating, Goosegrass (goosegrass [16]; [23]): 20
Plant response rating, Goosegrass (goosegrass [16]; [24]): 40
Plant response rating, Rice (rice): 0
Plant response rating, Blackgrass (blackgrass [17]; [25]): 0
Plant response rating, Blackgrass (blackgrass [17]; [26]): 0
Plant response rating, Oat, Wild (oat, wild [18]; [25]): 0
Plant response rating, Oat, Wild (oat, wild [18]; [26]): 0
Plant response rating, Corn (corn [19]; [25]): 0
Plant response rating, Corn (corn [19]; [26]): 0
Plant response rating, Barnyardgrass (barnyardgrass): 0
Plant response rating, Galium (galium; [23]): 0
Plant response rating, Galium (galium; [24]): 0
Plant response rating, Wheat (wheat [20]; [25]): 0
Plant response rating, Wheat (wheat [20]; [26]): 10
Plant response rating, Ducksalad (ducksalad): 0
Plant response rating, Ryegrass, Italian (ryegrass, Italian [21]; [23]): 0
Plant response rating, Ryegrass, Italian (ryegrass, Italian [21]; [24]): 0
Plant response rating, Oat, Wild (oat, wild [22]; [23]): 0
Plant response rating, Oat, Wild (oat, wild [22]; [24]): 0
